According to patent US8614327B2 (Vertex Pharmaceuticals Incorporated, priority 2004, dated 2013):

Target: T1, ΔF508-CFTR (Homo sapiens, UniProt P13569, DEL508-508)
T1 construct: expressed in transfected cells
Experiment: Membrane potential optical (FRET/VIPR) assay, identification of potentiator compounds
Format: cell-based
Settings: Table 3, assay not given; for % Activity: relative efficacy
Outline: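 NIH3T3 mouse fibroblasts stably expressing ΔF508-CFTR, temperature-corrected 24 h at 27° C., read on VIPR by FRET between CC2-DMPE and DiSBAC2(3). Potentiators identified in a double-addition format, first adding chloride-free (gluconate) medium with or without compound.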

T1 sequence (P13569 with tags, fused parts or gaps DEL508-508): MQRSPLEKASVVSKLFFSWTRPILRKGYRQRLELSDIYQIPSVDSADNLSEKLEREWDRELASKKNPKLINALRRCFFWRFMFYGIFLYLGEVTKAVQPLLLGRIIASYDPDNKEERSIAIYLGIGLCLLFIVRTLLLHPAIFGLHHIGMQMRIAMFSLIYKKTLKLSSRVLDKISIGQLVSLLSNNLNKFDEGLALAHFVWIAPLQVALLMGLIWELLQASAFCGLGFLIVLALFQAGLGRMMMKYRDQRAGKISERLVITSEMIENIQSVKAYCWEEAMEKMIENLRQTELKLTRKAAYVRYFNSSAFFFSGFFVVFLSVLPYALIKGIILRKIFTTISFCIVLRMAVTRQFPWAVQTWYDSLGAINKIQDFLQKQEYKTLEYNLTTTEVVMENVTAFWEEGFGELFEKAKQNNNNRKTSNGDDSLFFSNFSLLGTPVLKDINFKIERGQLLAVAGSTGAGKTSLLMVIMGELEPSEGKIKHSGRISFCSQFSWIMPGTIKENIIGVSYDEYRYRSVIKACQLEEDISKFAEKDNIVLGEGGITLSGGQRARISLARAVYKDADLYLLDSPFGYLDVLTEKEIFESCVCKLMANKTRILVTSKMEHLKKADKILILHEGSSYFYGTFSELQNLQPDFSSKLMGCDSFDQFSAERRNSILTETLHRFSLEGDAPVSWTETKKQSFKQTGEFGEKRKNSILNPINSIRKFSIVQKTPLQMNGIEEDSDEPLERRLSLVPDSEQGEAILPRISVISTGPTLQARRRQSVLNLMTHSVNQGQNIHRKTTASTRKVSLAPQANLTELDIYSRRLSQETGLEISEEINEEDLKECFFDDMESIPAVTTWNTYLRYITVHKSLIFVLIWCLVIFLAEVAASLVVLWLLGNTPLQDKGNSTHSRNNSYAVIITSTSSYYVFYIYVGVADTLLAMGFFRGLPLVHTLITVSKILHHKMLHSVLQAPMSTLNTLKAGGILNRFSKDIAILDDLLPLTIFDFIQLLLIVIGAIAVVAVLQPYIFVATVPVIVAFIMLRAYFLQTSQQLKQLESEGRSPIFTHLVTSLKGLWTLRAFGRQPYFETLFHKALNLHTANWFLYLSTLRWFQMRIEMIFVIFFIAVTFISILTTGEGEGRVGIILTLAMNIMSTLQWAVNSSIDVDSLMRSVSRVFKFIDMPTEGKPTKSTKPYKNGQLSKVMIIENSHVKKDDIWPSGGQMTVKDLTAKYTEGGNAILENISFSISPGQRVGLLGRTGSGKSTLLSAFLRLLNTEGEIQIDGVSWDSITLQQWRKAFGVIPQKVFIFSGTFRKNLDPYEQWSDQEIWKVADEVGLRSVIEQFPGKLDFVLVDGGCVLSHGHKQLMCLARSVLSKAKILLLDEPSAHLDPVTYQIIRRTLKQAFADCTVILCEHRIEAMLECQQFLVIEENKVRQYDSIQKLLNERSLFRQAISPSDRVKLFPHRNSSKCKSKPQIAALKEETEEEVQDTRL

EC50 [µM] | % Activity | SMILES
< 10 | ++ (between 25% to 100%) | O=C(Nc1ccc(OC(F)(F)F)cc1)c1c[nH]c2ccccc2c1=O [Compound 176, 4-oxo-N-[4-(trifluoromethoxy)phenyl]-1H-quinoline-3-carboxamide]
< 10 | ++ (between 25% to 100%) | CC(C)(C)c1ccccc1Oc1ccccc1NC(=O)c1c[nH]c2ccccc2c1=O [Compound 178, 4-oxo-N-[2-(2-tert-butylphenoxy)phenyl]-1H-quinoline-3-carboxamide]
< 10 | ++ (between 25% to 100%) | CCc1cccc(C)c1NC(=O)c1c[nH]c2ccccc2c1=O [Compound 180, N-(2-ethyl-6-methyl-phenyl)-4-oxo-1H-quinoline-3-carboxamide]
< 10 | ++ (between 25% to 100%) | Cc1ccc(-c2ccccc2NC(=O)c2c[nH]c3ccccc3c2=O)cc1 [Compound 181, 4-oxo-N-[2-(p-tolyl)phenyl]-1H-quinoline-3-carboxamide]
< 10 | ++ (between 25% to 100%) | O=C(Nc1ccccc1-c1ccc(F)cc1)c1c[nH]c2ccccc2c1=O [Compound 182, N-[2-(4-fluorophenyl)phenyl]-4-oxo-1H-quinoline-3-carboxamide]
< 10 | ++ (between 25% to 100%) | CC(C)(C)OC(=O)N1CCCc2ccc(NC(=O)c3c[nH]c4ccccc4c3=O)cc21 [Compound 183, 7-[(4-oxo-1H-quinolin-3-yl)carbonylamino]-1,2,3,4-tetrahydroquinoline-1-carboxylic acid tert-butyl ester]
< 10 | ++ (between 25% to 100%) | O=C(Nc1ccccc1-c1ccc(F)c(Cl)c1)c1c[nH]c2ccccc2c1=O [Compound 190, N-[2-(3-chloro-4-fluoro-phenyl)phenyl]-4-oxo-1H-quinoline-3-carboxamide]
25 to 60 | + (<25%) | O=C(Nc1cccc2ncccc12)c1c[nH]c2ccccc2c1=O [Compound 191, 4-oxo-N-(5-quinolyl)-1H-quinoline-3-carboxamide]
10 to 25 | ++ (between 25% to 100%) | COc1ccc(NC(=O)c2c[nH]c3ccccc3c2=O)c(OC)n1 [Compound 193, N-(2,6-dimethoxy-3-pyridyl)-4-oxo-1H-quinoline-3-carboxamide]
25 to 60 | + (<25%) | N#Cc1ccc(NC(=O)c2c[nH]c3ccccc3c2=O)cc1 [Compound 194, N-(4-cyanophenyl)-4-oxo-1H-quinoline-3-carboxamide]
< 10 | ++ (between 25% to 100%) | CC(C)(C)CC(=O)Nc1ccc(C(C)(C)C)c(NC(=O)c2c[nH]c3ccccc3c2=O)c1 [Compound 196, N-[5-(3,3-dimethylbutanoylamino)-2-tert-butyl-phenyl]-4-oxo-1H-quinoline-3-carboxamide]
10 to 25 | + (<25%) | Cc1cccc(NC(=O)c2c[nH]c3ccccc3c2=O)c1C#N [Compound 201, N-(2-cyano-3-methyl-phenyl)-4-oxo-1H-quinoline-3-carboxamide]
< 10 | ++ (between 25% to 100%) | COc1ccc(Cl)cc1-c1ccccc1NC(=O)c1c[nH]c2ccccc2c1=O [Compound 202, N-[2-(5-chloro-2-methoxy-phenyl)phenyl]-4-oxo-1H-quinoline-3-carboxamide]
< 10 | ++ (between 25% to 100%) | O=C(Nc1ccc2ccn(Cc3ccccc3)c2c1)c1c[nH]c2ccccc2c1=O [Compound 203, N-(1-benzyl-1H-indol-6-yl)-4-oxo-1H-quinoline-3-carboxamide]
10 to 25 | ++ (between 25% to 100%) | O=C(Nc1ccc(CO)cc1)c1c[nH]c2ccccc2c1=O [Compound 209, N-[4-(hydroxymethyl)phenyl]-4-oxo-1H-quinoline-3-carboxamide]
< 10 | ++ (between 25% to 100%) | COc1ccc(C(C)(C)C)cc1NC(=O)c1c[nH]c2ccccc2c1=O [Compound 211, N-(2-methoxy-5-tert-butyl-phenyl)-4-oxo-1H-quinoline-3-carboxamide]
< 10 | ++ (between 25% to 100%) | O=C(Nc1ccccc1-c1cc(Cl)ccc1Cl)c1c[nH]c2ccccc2c1=O [Compound 213, N-[2-(2,5-dichlorophenyl)phenyl]-4-oxo-1H-quinoline-3-carboxamide]

Second part, the compound before the results:

SMILES | EC50 [µM] | % Activity
CCCCOc1ccccc1NC(=O)c1c[nH]c2ccccc2c1=O [Compound 177, N-(2-butoxyphenyl)-4-oxo-1H-quinoline-3-carboxamide] | < 10 | +++ (>100%)
NC(=O)c1cccc(NC(=O)c2c[nH]c3ccccc3c2=O)c1 [Compound 179, N-(3-carbamoylphenyl)-4-oxo-1H-quinoline-3-carboxamide] | 25 to 60 | + (<25%)
O=C(Nc1ccc2cc[nH]c2c1)c1c(C(F)(F)F)[nH]c2ccccc2c1=O [Compound 184, N-(1H-indol-6-yl)-4-oxo-2-(trifluoromethyl)-1H-quinoline-3-carboxamide] | 25 to 60 | + (<25%)
O=C(Nc1cccc(S(=O)(=O)N2CCOCC2)c1)c1c[nH]c2ccccc2c1=O [Compound 185, N-(3-morpholinosulfonylphenyl)-4-oxo-1H-quinoline-3-carboxamide] | 25 to 60 | + (<25%)
O=C(Nc1ccc2c(C3CCCC3)c[nH]c2c1)c1c[nH]c2ccccc2c1=O [Compound 186, N-(3-cyclopentyl-1H-indol-6-yl)-4-oxo-1H-quinoline-3-carboxamide] | < 10 | ++ (between 25% to 100%)
CC(=O)n1ccc2ccc(NC(=O)c3c[nH]c4ccccc4c3=O)cc21 [Compound 187, N-(1-acetyl-1H-indol-6-yl)-4-oxo-1H-quinoline-3-carboxamide] | < 10 | ++ (between 25% to 100%)
CCOC(=O)c1cc2cc[nH]c2cc1NC(=O)c1c[nH]c2ccccc2c1=O [Compound 188, 6-[(4-oxo-1H-quinolin-3-yl)carbonylamino]-1H-indole-5-carboxylic acid ethyl ester] | < 10 | ++ (between 25% to 100%)
O=C(Nc1ccc(OCc2ccccc2)cc1)c1c[nH]c2ccccc2c1=O [Compound 189, N-(4-benzyloxyphenyl)-4-oxo-1H-quinoline-3-carboxamide] | < 10 | ++ (between 25% to 100%)
Cc1cccnc1NC(=O)c1c[nH]c2ccccc2c1=O [Compound 192, N-(3-methyl-2-pyridyl)-4-oxo-1H-quinoline-3-carboxamide] | 25 to 60 | + (<25%)
Cc1ccc(NC(=O)c2c[nH]c3ccccc3c2=O)nc1 [Compound 195, N-(5-methyl-2-pyridyl)-4-oxo-1H-quinoline-3-carboxamide] | 25 to 60 | + (<25%)
O=C(Nc1ccc(C(F)(F)F)nc1)c1c[nH]c2ccccc2c1=O [Compound 197, 4-oxo-N-[6-(trifluoromethyl)-3-pyridyl]-1H-quinoline-3-carboxamide] | 25 to 60 | + (<25%)
O=C(Nc1ccc(F)cc1)c1c[nH]c2ccccc2c1=O [Compound 198, N-(4-fluorophenyl)-4-oxo-1H-quinoline-3-carboxamide] | < 10 | ++ (between 25% to 100%)
Cc1ccccc1-c1ccccc1NC(=O)c1c[nH]c2ccccc2c1=O [Compound 199, N-[2-(o-tolyl)phenyl]-4-oxo-1H-quinoline-3-carboxamide] | < 10 | ++ (between 25% to 100%)
O=C(Nc1ccc2c(c1)C(O)CCC2)c1c[nH]c2ccccc2c1=O (stereo not shown) [Compound 200, 1,4-dihydro-N-(1,2,3,4-tetrahydro-1-hydroxynaphthalen-7-yl)-4-oxoquinoline-3-carboxamide] | 10 to 25 | ++ (between 25% to 100%)
CC1(C)CCOc2cc(NC(=O)c3c[nH]c4ccccc4c3=O)ccc21 [Compound 204, N-(4,4-dimethylchroman-7-yl)-4-oxo-1H-quinoline-3-carboxamide] | < 10 | ++ (between 25% to 100%)
COc1ccc(Oc2ccc(C(F)(F)F)cc2NC(=O)c2c[nH]c3ccccc3c2=O)cc1 [Compound 205, N-[2-(4-methoxyphenoxy)-5-(trifluoromethyl)phenyl]-4-oxo-1H-quinoline-3-carboxamide] | < 10 | ++ (between 25% to 100%)
Cc1cccc(Oc2ncccc2NC(=O)c2c[nH]c3ccccc3c2=O)c1C [Compound 206, N-[2-(2,3-dimethylphenoxy)-3-pyridyl]-4-oxo-1H-quinoline-3-carboxamide] | < 10 | ++ (between 25% to 100%)
CCOC(=O)Cc1c[nH]c2cc(NC(=O)c3c[nH]c4ccccc4c3=O)ccc12 [Compound 207, 2-[6-[(4-oxo-1H-quinolin-3-yl)carbonylamino]-1H-indol-3-yl]acetic acid ethyl ester] | < 10 | ++ (between 25% to 100%)
Cc1cc(C2C3CC4CC(C3)CC2C4)c(O)cc1NC(=O)c1c[nH]c2ccccc2c1=O (stereo not shown) [Compound 208, N-[4-(2-adamantyl)-5-hydroxy-2-methyl-phenyl]-4-oxo-1H-quinoline-3-carboxamide] | < 10 | ++ (between 25% to 100%)
COc1nc2ccccc2c(OC)c1C(=O)Nc1ccccc1-c1ccccc1 [Compound 210, 2,4-dimethoxy-N-(2-phenylphenyl)-quinoline-3-carboxamide] | 10 to 25 | ++ (between 25% to 100%)
CC1=NN(c2cccc(NC(=O)c3c[nH]c4ccccc4c3=O)c2)C(=O)C1 [Compound 212, N-[3-(3-methyl-5-oxo-1,4-dihydropyrazol-1-yl)phenyl]-4-oxo-1H-quinoline-3-carboxamide] | 25 to 60 | + (<25%)
